Source: US10899753B2, “Inhibiting agents for Bruton's tyrosine kinase” (BIOGEN MA INC., priority 2018, dated 2021)

Assays:
BTK [1] = molecular target: T1, BTK (Homo sapiens (Human), UniProt Q06187); experiment: In Vitro BTK Kinase Assay: BTK-POLYGAT-LS ASSAY; assay type: biochemical; conditions: fluorescein-labeled polyGAT peptide 100 nM, BTK enzyme 0.25 nM, 30 minutes, TRF
Procedure: In Vitro BTK Kinase Assay: BTK-POLYGAT-LS ASSAY
The purpose of the BTK in vitro assay is to determine compound potency against BTK through the measurement of IC50. […] For a typical assay, a […] aliquot of a ATP/peptide master mix (final concentration; ATP […], polyGAT 100 nM) in kinase buffer (10 mM Tris-HCl pH 7.5, 10 mM MgCl2, 200 μM Na3PO4, 5 mM DTT, 0.01% Triton X-100, and 0.2 mg/ml casein) is added to each well. […] The assay is incubated for 30 minutes before being stopped with 28 μL of a 50 mM EDTA solution. […] The plate is covered and incubated for 45 minutes at room temperature. Time resolved fluorescence (TRF) on Molecular Devices M5 (332 nm excitation; 488 nm emission; 518 nm fluorescein emission) is measured.

BTK [2] = molecular target: T1, BTK; experiment: In Vitro PD Assay in Human Whole Blood (pBTK assay); assay type: cell-based; conditions: human heparinized whole blood, 37° C. for 30 min, total BTK capture and phosphotyrosine detection (ECL)
Procedure: In Vitro PD Assay in Human Whole Blood
Human heparinized venous blood was purchased from Bioreclamation, Inc. or SeraCare Life Sciences and shipped overnight. Whole blood was aliquoted into 96-well plate and “spiked” with serial dilutions of test compound in DMSO or with DMSO without drug. The final concentration of DMSO in all wells was 0.1%. The plate was incubated at 37° C. for 30 min. Lysis buffer containing protease and phosphatase inhibitors was added to the drug-containing samples and one of the DMSO-only samples (+PPi, high control), while lysis buffer containing protease inhibitors was added to the other DMSO-only samples (−PPi, low control). All of the lysed whole blood samples were subjected to the total BTK capture and phosphotyrosine detection method described in US20160311802, incorporated herein by reference.

T1 sequence (Q06187 whole entry): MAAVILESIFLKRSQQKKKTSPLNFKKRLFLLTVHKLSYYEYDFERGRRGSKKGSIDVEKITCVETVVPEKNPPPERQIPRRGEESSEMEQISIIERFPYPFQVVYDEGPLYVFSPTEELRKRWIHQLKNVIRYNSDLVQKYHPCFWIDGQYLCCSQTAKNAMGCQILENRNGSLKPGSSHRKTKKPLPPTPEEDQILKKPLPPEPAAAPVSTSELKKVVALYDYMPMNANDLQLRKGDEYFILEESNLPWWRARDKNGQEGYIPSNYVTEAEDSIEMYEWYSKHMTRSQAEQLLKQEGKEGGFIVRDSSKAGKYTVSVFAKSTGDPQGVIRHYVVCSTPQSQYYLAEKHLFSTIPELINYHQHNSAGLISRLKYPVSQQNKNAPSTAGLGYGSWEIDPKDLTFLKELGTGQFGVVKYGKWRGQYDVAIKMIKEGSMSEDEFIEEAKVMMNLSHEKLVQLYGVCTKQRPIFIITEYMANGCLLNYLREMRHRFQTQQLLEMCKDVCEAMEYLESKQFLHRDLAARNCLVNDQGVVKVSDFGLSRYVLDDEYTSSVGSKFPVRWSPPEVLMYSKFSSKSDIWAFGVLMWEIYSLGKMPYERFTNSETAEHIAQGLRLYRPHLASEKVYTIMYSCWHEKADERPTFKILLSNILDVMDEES

## C[C@@H](NC(=O)c1nc(C(C)(C)C)no1)c1ccc(-c2ncnc(Nc3ccn(C)n3)n2)c(F)c1Cl [Compound 102, (R)-3-(tert-butyl)-N-(1-(2-chloro-3-fluoro-4-(4-((1-methyl-1H-pyrazol-3-yl)amino)-1,3,5-triazin-2-yl)phenyl)ethyl)-1,2,4-oxadiazole-5-carboxamide]
BTK [1]
  IC50: < 1 nM
BTK [2]
  IC50: 500 to 10000 nM

## Cc1c([C@@H](C)NC(=O)c2nc(C(C)(C)C)no2)ccc(-c2ncnc(Nc3ccn(C)n3)n2)c1F [Compound 72, (R)-3-(tert-butyl)-N-(1-(3-fluoro-2-methyl-4-(4-((1-methyl-1H-pyrazol-3-yl)amino)-1,3,5-triazin-2-yl)phenyl)ethyl)-1,2,4-oxadiazole-5-carboxamide]
BTK [1]
  IC50: < 1 nM
BTK [2]
  IC50: 100 to 500 nM

## Cc1cc(-c2ncnc(Nc3cnn(C)c3)n2)ccc1CNC(=O)c1noc(C(C)(C)C)n1 [Compound 11, 5-(tert-butyl)-N-(2-methyl-4-(4-((1-methyl-1H-pyrazol-4-yl)amino)-1,3,5-triazin-2-yl)benzyl)-1,2,4-oxadiazole-3-carboxamide]
BTK [1]
  IC50: < 1 nM
BTK [2]
  IC50: 100 to 500 nM

## Cc1c(CNC(=O)c2nc(C(C)(C)C)no2)ccc(-c2ncnc(Nc3cnn(C)c3)n2)c1F [Compound 14, 3-(tert-butyl)-N-(3-fluoro-2-methyl-4-(4-((1-methyl-1H-pyrazol-4-yl)amino)-1,3,5-triazin-2-yl)benzyl)-1,2,4-oxadiazole-5-carboxamide]
BTK [1]
  IC50: < 1 nM
BTK [2]
  IC50: < 100 nM

## Cn1ccc(Nc2ncnc(-c3ccc(CNC(=O)c4nc(C(C)(C)C)no4)c(Cl)c3)n2)n1 [Compound 6, 3-(tert-butyl)-N-(2-chloro-4-(4-((1-methyl-1H-pyrazol-3-yl)amino)-1,3,5-triazin-2-yl)benzyl)-1,2,4-oxadiazole-5-carboxamide]
BTK [1]
  IC50: < 1 nM
BTK [2]
  IC50: 500 to 10000 nM

## Cn1cc(Nc2ncnc(-c3ccc4c(c3)CN(CC(F)(F)F)CC[C@H]4NC(=O)c3nc(C(C)(C)C)co3)n2)cn1 [Compound 93, 4-tert-butyl-N-[(5R)-8-[4-[(1-methylpyrazol-4-yl)amino]-1,3,5-triazin-2-yl]-2-(2,2,2-trifluoroethyl)-1,3,4,5-tetrahydro-2-benzazepin-5-yl]oxazole-2-carboxamide]
BTK [1]
  IC50: < 1 nM
BTK [2]
  IC50: < 100 nM

## C[C@@H](NC(=O)c1noc(C(C)(C)C)n1)c1ccc(-c2ncnc(Nc3cnn(C)c3)n2)c(F)c1Cl [Compound 69, (R)-5-(tert-butyl)-N-(1-(2-chloro-3-fluoro-4-(4-((1-methyl-1H-pyrazol-4-yl)amino)-1,3,5-triazin-2-yl)phenyl)ethyl)-1,2,4-oxadiazole-3-carboxamide]
BTK [1]
  IC50: < 1 nM
BTK [2]
  IC50: < 100 nM

## Cc1c(CNC(=O)c2noc(C(C)(C)CF)n2)ccc(-c2ncnc(Nc3ccn(C)n3)n2)c1F [Compound 45, N-(3-fluoro-2-methyl-4-(4-((1-methyl-1H-pyrazol-3-yl)amino)-1,3,5-triazin-2-yl)benzyl)-5-(1-fluoro-2-methylpropan-2-yl)-1,2,4-oxadiazole-3-carboxamide]
BTK [1]
  IC50: < 1 nM
BTK [2]
  IC50: 100 to 500 nM

## Cc1cc(-c2ncnc(Nc3cnn(C)c3)n2)ccc1CNC(=O)c1nnn(C(C)(C)C)n1 [Compound 39, 2-(tert-butyl)-N-(2-methyl-4-(4-((1-methyl-1H-pyrazol-4-yl)amino)-1,3,5-triazin-2-yl)benzyl)-2H-tetrazole-5-carboxamide]
BTK [1]
  IC50: < 1 nM
BTK [2]
  IC50: < 100 nM

## Cc1cc(-c2ncnc(Nc3ccn(C)n3)n2)ccc1CNC(=O)c1cc(C(C)(C)C)on1 [Compound 42, 5-(tert-butyl)-N-(2-methyl-4-(4-((1-methyl-1H-pyrazol-3-yl)amino)-1,3,5-triazin-2-yl)benzyl)isoxazole-3-carboxamide]
BTK [1]
  IC50: 1 to 10 nM
BTK [2]
  IC50: 500 to 10000 nM

## Cc1cc(-c2ncnc(Nc3cnn(C)c3)n2)ccc1CNC(=O)c1nc(C(C)(C)C)co1 [Compound 114, 4-(tert-butyl)-N-(2-methyl-4-(4-((1-methyl-1H-pyrazol-4-yl)amino)-1,3,5-triazin-2-yl)benzyl)oxazole-2-carboxamide]
BTK [1]
  IC50: < 1 nM
BTK [2]
  IC50: 500 to 10000 nM

## Cc1cc(-c2ncnc(Nc3cnn(C)c3)n2)c(F)cc1CNC(=O)c1cnn(C(C)(C)C)c1 [Compound 61, 1-(tert-butyl)-N-(5-fluoro-2-methyl-4-(4-((1-methyl-1H-pyrazol-4-yl)amino)-1,3,5-triazin-2-yl)benzyl)-1H-pyrazole-4-carboxamide]
BTK [1]
  IC50: < 1 nM
BTK [2]
  IC50: 100 to 500 nM

## Cc1c(CNC(=O)c2nn(C(C)(C)C)cc2F)ccc(-c2ncnc(Nc3cnn(C)c3)n2)c1F [Compound 27, 1-(tert-butyl)-4-fluoro-N-(3-fluoro-2-methyl-4-(4-((1-methyl-1H-pyrazol-4-yl)amino)-1,3,5-triazin-2-yl)benzyl)-1H-pyrazole-3-carboxamide]
BTK [1]
  IC50: < 1 nM
BTK [2]
  IC50: 100 to 500 nM

## Cc1cc(-c2ncnc(Nc3cnn(C)c3)n2)ccc1CNC(=O)c1cnc(C(C)(C)C)o1 [Compound 99, 2-(tert-butyl)-N-(2-methyl-4-(4-((1-methyl-1H-pyrazol-4-yl)amino)-1,3,5-triazin-2-yl)benzyl)oxazole-5-carboxamide]
BTK [1]
  IC50: < 1 nM
BTK [2]
  IC50: 500 to 10000 nM

## Cn1cc(Nc2ncnc(-c3ccc(CNC(=O)c4nc(C(C)(C)C)no4)c(Cl)c3F)n2)cn1 [Compound 29, 3-(tert-butyl)-N-(2-chloro-3-fluoro-4-(4-((1-methyl-1H-pyrazol-4-yl)amino)-1,3,5-triazin-2-yl)benzyl)-1,2,4-oxadiazole-5-carboxamide]
BTK [1]
  IC50: < 1 nM
BTK [2]
  IC50: < 100 nM

## Cc1c(CNC(=O)c2noc(C(C)(C)C)n2)ccc(-c2ncnc(Nc3ccn(C)n3)n2)c1F [Compound 9, 5-(tert-butyl)-N-(3-fluoro-2-methyl-4-(4-((1-methyl-1H-pyrazol-3-yl)amino)-1,3,5-triazin-2-yl)benzyl)-1,2,4-oxadiazole-3-carboxamide]
BTK [1]
  IC50: < 1 nM
BTK [2]
  IC50: 100 to 500 nM

## Cc1cc(-c2ncnc(Nc3cnn(C)c3)n2)ccc1CNC(=O)c1nc(C(C)(C)C)no1 [Compound 12, 3-(tert-butyl)-N-(2-methyl-4-(4-((1-methyl-1H-pyrazol-4-yl)amino)-1,3,5-triazin-2-yl)benzyl)-1,2,4-oxadiazole-5-carboxamide]
BTK [1]
  IC50: < 1 nM
BTK [2]
  IC50: 100 to 500 nM

## Cn1ccc(Nc2ncnc(-c3cc4c(cc3F)[C@H](NC(=O)c3noc(C(C)(C)C)n3)CCCC4)n2)n1 [Compound 84, (R)-5-(tert-butyl)-N-(3-fluoro-2-(4-((1-methyl-1H-pyrazol-3-yl)amino)-1,3,5-triazin-2-yl)-6,7,8,9-tetrahydro-5H-benzo[7]annulen-5-yl)-1,2,4-oxadiazole-3-carboxamide]
BTK [1]
  IC50: < 1 nM
BTK [2]
  IC50: 100 to 500 nM

## Cn1ccc(Nc2ncnc(-c3ccc(CNC(=O)c4nc(C(C)(C)C)no4)c(C4CC4)c3F)n2)n1 [Compound 55, 3-(tert-butyl)-N-(2-cyclopropyl-3-fluoro-4-(4-((1-methyl-1H-pyrazol-3-yl)amino)-1,3,5-triazin-2-yl)benzyl)-1,2,4-oxadiazole-5-carboxamide]
BTK [1]
  IC50: < 1 nM
BTK [2]
  IC50: 500 to 10000 nM

## Cc1cc(-c2ncnc(Nc3cnn(C)c3)n2)ccc1CNC(=O)c1cnn(C(C)(C)C)c1 [Compound 37, 1-(tert-butyl)-N-(2-methyl-4-(4-((1-methyl-1H-pyrazol-4-yl)amino)-1,3,5-triazin-2-yl)benzyl)-1H-pyrazole-4-carboxamide]
BTK [1]
  IC50: < 1 nM
BTK [2]
  IC50: 100 to 500 nM

## Cn1ccc(Nc2ncnc(-c3ccc4c(c3F)CCCC[C@H]4NC(=O)c3noc(C(C)(C)C)n3)n2)n1 [Compound 111, (R)-5-(tert-butyl)-N-(1-fluoro-2-(4-((1-methyl-1H-pyrazol-3-yl)amino)-1,3,5-triazin-2-yl)-6,7,8,9-tetrahydro-5H-benzo[7]annulen-5-yl)-1,2,4-oxadiazole-3-carboxamide]
BTK [1]
  IC50: < 1 nM
BTK [2]
  IC50: 100 to 500 nM

## Cc1c(CNC(=O)c2ccn(C(C)(C)C)n2)ccc(-c2ncnc(Nc3cnn(C)c3)n2)c1F [Compound 106, 1-(tert-butyl)-N-(3-fluoro-2-methyl-4-(4-((1-methyl-1H-pyrazol-4-yl)amino)-1,3,5-triazin-2-yl)benzyl)-1H-pyrazole-3-carboxamide]
BTK [1]
  IC50: < 1 nM
BTK [2]
  IC50: 500 to 10000 nM

## Cn1cc(Nc2ncnc(-c3ccc(CNC(=O)c4noc(C(C)(C)C)n4)c(Cl)c3)n2)cn1 [Compound 15, 5-(tert-butyl)-N-(2-chloro-4-(4-((1-methyl-1H-pyrazol-4-yl)amino)-1,3,5-triazin-2-yl)benzyl)-1,2,4-oxadiazole-3-carboxamide]
BTK [1]
  IC50: < 1 nM
BTK [2]
  IC50: 100 to 500 nM

## Cc1cc(-c2ncnc(Nc3ccn(C)n3)n2)ccc1CNC(=O)c1cc(C(C)(C)C)no1 [Compound 43, 3-(tert-butyl)-N-(2-methyl-4-(4-((1-methyl-1H-pyrazol-3-yl)amino)-1,3,5-triazin-2-yl)benzyl)isoxazole-5-carboxamide]
BTK [1]
  IC50: 1 to 10 nM
BTK [2]
  IC50: 500 to 10000 nM
